In brackets after ≈: the same amount, converted by molar mass.

The subject of one experiment is P388. Nature of the experiment: The concentration required to 50% inhibition of the P388 leukemic cell proliferation. Type of experiment: functional, cell-based. The settings on record: Mus musculus.
Experiment [1] can be described thus: Ratio of the concentration of compound leading to a 50% inhibition of the rate of pig brain microtubule disassembly to that of compound 13a was determined. Format: functional.
Another experiment is filed under the species Sus scrofa. Nature of the experiment: Ratio of the concentration leading to a 50% inhibition of the rate of pig brain microtubule disassembly to that of taxol (0.4 uM) was determined. Format: functional.
Experiment [2] can be described thus: Cytotoxicity was measured as ratio of its IC50 value to that of compound 13a. Type of experiment: functional.

The term IC50 denotes the concentration at which inhibition is half-maximal. A lower IC50 goes with inhibition by little substance. As for `CC(=O)O[C@@]12CO[C@@H]1C[C@H](OC(=O)C(N)Cc1ccccc1)[C@@]1(C)C(=O)[C@H](O)C3=C(C)[C@@H](OC(=O)C(O)C(NC(=O)OC(C)(C)C)c4ccccc4)C[C@@](O)([C@@H](OC(=O)c4ccccc4)[C@H]21)C3(C)C` (some centres undefined), inhibition in the experiment with P388 was half-maximal at 0.12 µg/mL (≈ 0.126 µM) (IC50). Also, the figures for the Ratio (in experiment [1]; in the experiment filed under Sus scrofa; in experiment [2]) were 2, 1 and 1, respectively.
In the experiment with P388, `CC(=O)O[C@@]12CO[C@@H]1C[C@H](O)[C@@]1(C)C(=O)[C@H](O)C3=C(C)[C@@H](OC(=O)[C@H](O)[C@@H](NC(=O)OC(C)(C)C)c4ccccc4)C[C@@](O)([C@@H](OC(=O)c4ccccc4)[C@H]21)C3(C)C.O.O.O` [DOCETAXEL] registered an IC50 of 0.13 µg/mL. Also, the Ratio in experiment [1] is 1; in the experiment filed under Sus scrofa, 0.5; in experiment [2] it was 1.
For the compound `CC(=O)O[C@@]12CO[C@@H]1C[C@H](O)[C@@]1(C)C(=O)[C@H](O)C3=C(C)[C@@H](OC(=O)[C@@H](O)[C@H](NC(=O)OC(C)(C)C)c4ccccc4)C[C@@](O)([C@@H](OC(=O)c4ccccc4)[C@H]21)C3(C)C`, the IC50 in the experiment with P388 was > 10 µg/mL. Besides, the Ratio is 60 in experiment [1], 30 in the experiment filed under Sus scrofa and >77 in experiment [2].
The matching figures for `CC(=O)O[C@H]1C(=O)[C@@]2(C)[C@H]([C@H](OC(=O)c3ccccc3)[C@]3(O)C[C@H](OC(=O)[C@H](NC(=O)c4ccccc4)[C@@H](O)c4ccccc4)C(C)=C1C3(C)C)[C@]1(OC(C)=O)CO[C@@H]1C[C@@H]2O`: 6 µg/mL (≈ 7.03 µM), 20, 10 and 46.
In turn, `CC(=O)O[C@H]1C(=O)[C@@]2(C)[C@H]([C@H](OC(=O)c3ccccc3)[C@]3(O)C[C@H](OC(=O)[C@H](O)[C@@H](NC(=O)OC(C)(C)C)c4ccccc4)C(C)=C1C3(C)C)[C@]1(OC(C)=O)CO[C@@H]1C[C@@H]2O` showed an IC50 with P388 of 0.17 µg/mL (≈ 0.2 µM). For the same compound, the Ratio in experiment [1] was 1; in the experiment listed under Sus scrofa, 0.5; in experiment [2] it was 1.3.
The matching figures for `CC(=O)O[C@@]12CO[C@@H]1C[C@H](OC(=O)CN)[C@@]1(C)C(=O)[C@H](OC(=O)CN)C3=C(C)[C@@H](OC(=O)C(O)C(NC(=O)OC(C)(C)C)c4ccccc4)C[C@@](O)([C@@H](OC(=O)c4ccccc4)[C@H]21)C3(C)C` (some centres undefined): 0.19 µg/mL (≈ 0.206 µM), 1.4, 1.2 and 1.5.

The values are drawn from ChEMBL document CHEMBL1125650, “Relationships between the structure of taxol analogues and their antimitotic activity” (J Med Chem, 1991).
